Measured values from patent publication US4151279A (priority 1978, dated 1979).

What was measured:
Assay type in all cases: in vivo
Alternaria solani = assay: Tomato Early Blight control (sprayed tomato seedlings); settings: 288 h, 250-ppm solution, tomato (cultivar Bonny Best) seedlings, inoculated one day later, about 12 days, relative to untreated check plants
Experimental: Compounds of the invention were tested for the control of the Tomato Early Blight organism, Alternaria solani. Tomato (cultivar Bonny Best) seedlings of 6 to 7 weeks old were used. The tomato plants were sprayed with a 250-ppm solution of the test compound in an acetone-and-water solution containing a small amount of a non-ionic emulsifier. The sprayed plants were inoculated one day later with the organism, dried and maintained at 60-80% relative humidity for about 12 days. Percent disease control was based on the percent disease development on untreated check plants.

Plasmopara viticola = assay: Preventive Grape Downy Mildew control (detached grape leaves); settings: detached Vitis vinifera cultivar Emperor leaves, seven to nine days after inoculation
Experimental: Compounds Nos. 1, 4, 13 and 19 were tested for the control of the grape downy mildew organism Plasmopara viticola. Detached leaves, between 70 and 85 mm in diameter, of 7-week-old Vitis vinifera cultivar Emperor grape seedlings were used as hosts. The leaves were sprayed with a solution of the test compound in acetone. The sprayed leaves were dried, inoculated with a spore suspension of the organism, placed in a humid environmental chamber and incubated at 18°-22° C. and about 100% relative humidity. Seven to nine days after inoculation, the amount of disease control was determined. The percent disease control provided by a given test compound was based on the percent disease reduction relative to untreated check plants.

Botrytis cinerea = Botrytis cinerea control (preventive, harvested grape berries); settings: 250-ppm solution; grape berries (cultivar Emperor); inoculated approximately one day later; 6-9 days after inoculation; relative to non-treated check
Experimental: Compounds Nos. 1, 8 and 11 were tested as preventive fungicides against Botrytis cinerea on harvested mature grape berries (cultivar Emperor) by the following procedure: 4 grape bunches (trimmed to approximately 50 berries) were sprayed with a 250-ppm solution of the test compound in a solution of water, acetone and a small amount of a non-ionic emulsifier. The sprayed grapes were inoculated approximately one day later with 2- to 3-week-old spores of Botrytis cinerea grown on potato dextrose agar plants. The rate of disease incidence was determined 6-9 days after inoculation, when disease symptoms are fully evident on non-treated check grapes. Infection is determined by actual count of the number of infected berries. The percent disease control provided by a test compound was calculated from the percentage disease reduction based on the non-treated check plants.

Ersiphe polygoni = assay: Powdery Mildew control (sprayed bean seedlings); settings: 250-ppm solution; bean seedlings (cultivar Bountiful); inoculated one day after spray; about 10 days; relative to untreated check plants
Experimental: The powdery mildew test was made using bean seedlings (cultivar Bountiful) with well-developed primary leaves. The pathogen was Ersiphe polygoni. The bean seedlings were sprayed with a 250-ppm solution of the test compound in an acetone-water mixture containing a non-ionic emulsifier. The treated plants were inoculated one day after spray application of the test compound with the pathogen. The plants were then maintained in a greenhouse at 60-80% relative humidity and at a temperature of 20°-22° C. The rate of infection on the leaves were checked after about 10 days. The percent disease control provided by a given test compound was based on the disease reduction relative to untreated check plants.

Phytophthora infestans = assay: whole plant or invertebrate; settings: in Solanum lycopersicum, 168 h, read-out: % Control
Septoria apii = settings: celery (Utah) plants 11 weeks old; approximately 14 days; concentration not given; relative to untreated check plants

Structure (SMILES) | pest or weed control at 250 µg/mL (Alternaria solani) [%] | pest or weed control at 250 µg/mL (Phytophthora infestans) [%] | further results
CC1(C)OC(=O)CC(C(Cl)(Cl)Cl)N1OC(=O)Nc1ccccc1 (stereo not shown) [Compound 1] | 21 |  | % Control (Plasmopara viticola; 250 ppm): 23%; % Control (Botrytis cinerea): 23%; % Control (Ersiphe polygoni): 91%
CC1(C)OC(=O)CC(C(Cl)(Cl)Cl)N1OC(=O)Nc1ccccc1F (stereo not shown) [Compound 2] | 21 |  | % Control (Ersiphe polygoni): 75%
CC1(C)OC(=O)CC(C(Cl)(Cl)Cl)N1OC(=O)Nc1ccc(Cl)c(Cl)c1 (stereo not shown) [Compound 4] |  | 96 | % Control (Plasmopara viticola; 100 ppm): 60%
O=C1CC(C(Cl)(Cl)Cl)N(OC(=O)Nc2ccc(Cl)c(Cl)c2)C2(CCCCC2)O1 (stereo not shown) [Compound 5] |  | 56 | 
CC1(C)OC(=O)C(Cl)(Cl)C(C(Cl)(Cl)Cl)N1OC(=O)Nc1ccc(Cl)c(Cl)c1 (stereo not shown) [Compound 7] | 18 | 21 | 
CC1(c2ccccc2)OC(=O)C(Cl)(Cl)C(C(Cl)(Cl)Cl)N1OC(=O)Nc1ccccc1 (stereo not shown) [Compound 8, N-(phenylcarbamyloxy)-2-methyl-2-phenyl-4-trichloromethyl-5,5-dichloro-6-oxotetrahydro-1,3-oxazine] | 84 | 97 | % Control (Septoria apii): 61%; % Control (Botrytis cinerea): 100%
CC1(c2ccccc2)OC(=O)C(Cl)(Cl)C(C(Cl)(Cl)Cl)N1OC(=O)Nc1ccc(Cl)c(Cl)c1 (stereo not shown) [Compound 9] |  | 89 | 
CC1(C)OC(=O)C(Cl)(Cl)C(C(Cl)(Cl)Cl)N1OC(=O)Nc1cccc(Cl)c1 (stereo not shown) [Compound 10] | 84 | 68 | 
O=C(Nc1ccc(Cl)cc1)ON1C(C(Cl)(Cl)Cl)C(Cl)(Cl)C(=O)OC12CCCC2 (stereo not shown) [Compound 11] | 84 | 94 | % Control (Septoria apii): 42%; % Control (Botrytis cinerea): 78%
O=C(Nc1cccc(Cl)c1)ON1C(C(Cl)(Cl)Cl)C(Cl)(Cl)C(=O)OC12CCCC2 (stereo not shown) [Compound 12] | 33 | 68 | 
CC1(c2ccccc2)OC(=O)C(Cl)(Cl)C(C(Cl)(Cl)Cl)N1OC(=O)Nc1cccc(Cl)c1 (stereo not shown) [Compound 13] |  | 89 | % Control (Plasmopara viticola; 100 ppm): 73%
CC1(C)OC(=O)C(Cl)(Cl)C(C(Cl)(Cl)Cl)N1OC(=O)Nc1ccc(Cl)cc1 (stereo not shown) [Compound 14] | 27 |  | 
O=C(Nc1cccc(Cl)c1)ON1C(C(Cl)(Cl)Cl)C(Cl)(Cl)C(=O)OC1(c1ccccc1)c1ccccc1 (stereo not shown) [Compound 15] | 51 |  | % Control (Ersiphe polygoni): 11%
O=C(Nc1ccc(Cl)cc1)ON1C(C(Cl)(Cl)Cl)C(Cl)(Cl)C(=O)OC1(c1ccccc1)c1ccccc1 (stereo not shown) [Compound 16] | 68 |  | 
COc1ccc(NC(=O)ON2C(C(Cl)(Cl)Cl)C(Cl)(Cl)C(=O)OC2(C)C)cc1 (stereo not shown) [Compound 18] |  | 95 | 
Cc1cccc(C)c1NC(=O)ON1C(C(Cl)(Cl)Cl)C(Cl)(Cl)C(=O)OC1(C)C (stereo not shown) [Compound 21] |  | 88 | 
CC1(C)OC(=O)CC(C(Cl)(Cl)Cl)N1OC(=O)Nc1ccc(Cl)cc1 (stereo not shown) [Compound 24] |  |  | % Control (Ersiphe polygoni): 75%
CC(C)C1(C)OC(=O)C(Cl)(Cl)C(C(Cl)(Cl)Cl)N1OC(=O)Nc1ccccc1 (stereo not shown) [Compound 27] |  | 92 | 
CC(C)C1(C)OC(=O)CC(C(Cl)(Cl)Cl)N1OC(=O)Nc1ccc(Cl)c(Cl)c1 (stereo not shown) [Compound 28] |  | 23 | 
CCC1(C)OC(=O)CC(C(Cl)(Cl)Cl)N1OC(=O)Nc1ccc(Cl)cc1 (stereo not shown) [Compound 31] | 39 | 27 | % Control (Septoria apii): 64%
CC(C)C1(C)OC(=O)CC(C(Cl)(Cl)Cl)N1OC(=O)Nc1ccc(Cl)cc1 (stereo not shown) [Compound 32] | 23 | 56 | % Control (Ersiphe polygoni): 100%
Cc1ccc(NC(=O)ON2C(C(Cl)(Cl)Cl)CC(=O)OC2(C)C)cc1 (stereo not shown) [Compound 33] |  | 21 | % Control (Ersiphe polygoni): 96%
